This is an account of results in patent US8603737B2, “Methods for identifying HCV protease inhibitors” (priority 2008, dated 2013).

Test [1] addresses T1, NS3 protease self-cleavage in Huh-7-Luc-Neo-ET cells (Hepatitis C virus genotype 1b, UniProt Q9WMX2, E1202G/T1280I).
T1 construct: host or cells: Huh-7-Luc-Neo-ET replicon cells (human hepatoma Huh7)
The format is cell-based, HCV. The following applies: wild type replicon cells. On the procedure: Inhibition of Protease Self Cleavage
The remaining wells were rinsed 2× with PBS then fed with Replicon Media and returned to the incubator.
Cell lysates were separated by SDS-Page (4-20%) and transferred to Immobilon-P PVDF membrane (Millipore Corporation, MA) and blotted with polyclonal anti NS3 antibody (Bioenza, Calif.). Blots were scanned on an Odyssey infrared scanner from Licor and the FL band and cleavage products were quantified separately using the Licor software provided with the scanner. The cleavage product was calculated as a percentage of the total NS3 in each sample and then normalized to the DMSO control so that the DMSO control reflects 100% activity.

Test [2] concerns HCV NS3/4A genotypes 1a, 1b, 2a, and 3a. The test can be described thus: Mass spectrometric analysis of covalent modification, NS3/4A genotypes. The format is binding. The following applies: 3 hours reaction, each genotype 1a, 10-fold excess of compound. On the procedure: Mass spectrometric analysis of HCV wild type or HCV variants (C159S, A156S, R155K, D168A, A156T, and D168V) in the presence of test compound was performed. 100 pmols of HCV wild type (Bioenza Calif.) was incubated with test compound for 1 hr and 3 hrs at 10-fold excess of test compound to protein. 1 μL aliquots of the samples (total volume of 4.24 μL) were diluted with 10 μL of 0.1% TFA prior to micro C4 ZipTipping directly onto the MALDI target using Sinapinic acid as the desorption matrix (10 mg/mL in 0.1% TFA:Acetonitrile 50:50). Analyses were performed on a Shimadzu Biotech Axima TOF (Shimadzu Instruments) matrix-assisted-laser desorption/ionization Time-of-Flight (MALDI-TOF) mass spectrometer. The same procedure was carried out on 100 pmols of HCV C159S mutant of HCV protease for 3 hrs at 10-fold excess of test compound to protein.
In addition, mass spectrometric analysis of HCV NS3/4A genotypes 1a, 1b, 2a, and 3a in the presence of test compound was performed using the above protocol.

Test [3] relates to HCV RNA replicon in cell line ET (luc-ubi-neo/ET), human Huh7 hepatoma. The test can be described thus: Luciferase reporter replicon assay (Example 5, Method C). The following applies: Hepatitis C virus, Huh-7, 72 hr, EC90, read-out: Inhibition, Replicon, EC90 value. In kind it is cell-based. On the procedure:
Method C: Luciferase Reporter Assay Protocol
The compounds were assayed to evaluate the antiviral activity and cytotoxicity of compounds using replicon-derived luciferase activity. This assay used the cell line ET (luc-ubi-neo/ET), which is a human Huh7 hepatoma cell line that contains an HCV RNA replicon with a stable luciferase (Luc) reporter and three cell culture-adaptive mutations. The ET cell line was grown in a 5% CO2 incubator at 37° C. in Dulbecco's modified essential media (DMEM), supplemented with 2 mM L-glutamine (“1%”), nonessential amino acids, 100 U of penicillin/mL, 100 μg of streptomycin/mL (“1%”), 10% fetal bovine serum and 400 μg/mL G418 (Geneticin; Invitrogen).
All cell culture reagents were obtained from Invitrogen (Carlsbad). Cells were trypsinized (1% trypsin:EDTA) and plated out at 5×10^3 cells/well in white 96-well assay plates (Costar) dedicated to cell number (cytotoxicity) or antiviral activity assessments. Test compounds were added at six 3-fold serial dilutions each and the assay was run in DMEM, 5% FBS, 1% pen-strep, 1% glutamine, 1% non essential amino acid. Human interferon alpha-2b (PBL Biolabs, New Brunswick, N.J.) was included in each run as a positive control compound. Cells were processed 72 hr post test compound addition when the cells were still subconfluent. Antiviral activity was measured by analyzing replicon-derived luciferase activity using the Steady-Glo Luciferase Assay System (Promega, Madison, Wis.) according to manufacturer's instruction. The number of cells in each well was determined by Cell Titer Blue Assay (Promega). Compound profile was derived by calculating applicable EC50 (effective concentration inhibiting virus replication by 50%), EC90 (effective concentration inhibiting virus replication by 90%), IC50 (concentration decreasing cell viability by 50%) and SI50 (selective index: […]) values.

In test [4] the target is T2, D168V mutant of the HCV NS3/4A 1b protease enzyme (Hepatitis C virus genotype 1b, UniProt P26663, D1194V).
T2 construct: 10× stocks of NS3/4A protease enzyme from Bioenza; purchased Bioenza (Mountain View, Calif.)
The test can be described thus: HCV protease FRET assay, D168V mutant. In kind it is biochemical. Conditions: read-out: Inhibition, HCV D168V (IC50). Here is the method: HCV Protease FRET Assay for Mutated NS3/4A 1b Enzymes
The protocol is a modified FRET-based assay (v—02) from In Vitro Resistance Studies of HCV Serine Protease Inhibitors, 2004, JBC, vol. 279, No. 17, pp 17508-17514. Inherent potency of compounds was assessed against A156S, A156T, D168A, and D168V mutants of the HCV NS3/4A 1b protease enzyme as follows:
Assay buffer: 2% CHAPS, 50 mM Tris pH 7.5, 50% glycerol, 2 μM M-2235 (Bachem) substrate. In a 50 μl reaction, add 49 μl assay buffer, 1 μl (1 U) HCV serine protease (Bioenza). Incubate 20 minutes at room temperature. The plate was read at either 350/460 nm (excitation/emission) on a fluorescent micro-plate reader or monitored at one-minute intervals to achieve the kinetic curve.
10× stocks of NS3/4A protease enzyme from Bioenza (Mountain View, Calif.) and 1.13×5-FAM/QXL™520 FRET peptide substrate from Anaspec (San Jose, Calif.) were prepared in 50 mM HEPES, pH 7.8, 100 mM NaCl, 5 mM DTT and 20% glycerol. 5 μL of each enzyme were pre-incubated in a Corning (#3573) 384-well, black, non-treated microtiter plate (Corning, N.Y.) for 30 min at 25° C. with a 0.5 μL volume of 50% DMSO and serially diluted compounds prepared in 50% DMSO. Protease reactions were started with the addition of 45 μL of the FRET substrate and monitored for 120 minutes at λex487/λem514 through Quad^4 monochromoters in a Synergy^4 plate reader from BioTek (Winooski, Vt.). […] Initial velocity (0 minutes to 30+ minutes) from each reaction was determined from the slope of a plot of relative fluorescence units vs time (minutes) and then plotted against inhibitor concentration to estimate IC50 from log[Inhibitor] vs Response, Variable Slope model in GraphPad Prism from GraphPad Software (San Diego, Calif.). […]
The following protocol was used to generate “apparent” IC50 (IC50—APP)) values as depicted in Table 3, below. […] Protease reactions were immediately started after enzyme addition with the addition of 45 μL of the FRET substrate and monitored for 60-90 minutes at λex485/λem520 in a Synergy^4 plate reader from BioTek (Winooski, Vt.). […]

The target of test [5] is T3, NS3 protease R155K self-cleavage in modified replicon system (Hepatitis C virus genotype 1b, UniProt Q9WMX2, E1202G/R1181K/T1280I).
T3 construct: expressed in transfected cells; host or cells: replicon cells carrying the R155K-mutated pFK-I389-luc-ubi-neo-NS3-3'ET replicon
The test can be described thus: Inhibition of protease self cleavage in R155K modified replicon system (washout). The following applies: R155K modified replicon system (FIG. 6). The format is cell-based, HCV. Here is the method:
Constructs containing clinically relevant mutations were generated by performing site-directed mutagenesis on the pFK-1389-luc-ubi-neo-NS3-3′ET plasmid (ReBLikon Gmbh (Heidelberg, Germany)). using the QuickChange II Site-Directed Mutagenesis Kit (Stratagene, La Jolla, Calif.) according to manufacturer's directions and with the primers described in Table 2.
Huh-7-Luc-Neo-ET cells were plated in Replicon Assay Medium (RPMI supplemented with 5% FBS, 1× non-essential amino acids and pen/strep) at a density of 1×10^5 cells/well in 12 well plates. Eight hours later the media was removed and replaced with 1 mL media containing test compound (5 wells per compound) and 0.02% DMSO and the cells were returned to the incubator overnight. […]
Cell lysates were separated by SDS-Page (4-20%) and transferred to Immobilon-P PVDF membrane (Millipore Corporation, MA) and blotted with polyclonal anti NS3 antibody (Bioenza, Calif.). Blots were scanned on an Odyssey infrared scanner from Licor and the FL band and cleavage products were quantified separately using the Licor software provided with the scanner. The cleavage product was calculated as a percentage of the total NS3 in each sample and then normalized to the DMSO control so that the DMSO control reflects 100% activity. […]

Molecules are shown by their SMILES.

With `CCC[C@H](NC(=O)[C@@H]1[C@H]2CCC[C@H]2CN1C(=O)[C@@H](NC(=O)[C@@H](NC(=O)c1cnccn1)C1CCCCC1)C(C)(C)C)C(=O)C(=O)NC1CC1` [Compound 1, reference compound], the “return of NS3 self-cleavage activity after drug removal” value in test [1] (16 hours incubation, in as little as 4 hours after drug removal) is “virtually complete return of activity”.
Consider `C=C[C@@H]1C[C@]1(NC(=O)[C@@H]1C[C@@H](Oc2nccc3cc(OC)ccc23)CN1C(=O)[C@H](CCC(=O)C=C(C)C)NC(=O)OC(C)(C)C)C(=O)NS(=O)(=O)C1CC1` [Compound 5], for which the “covalent modification of HCV NS3/4A (mass spectrometry)” value in test [2] is listed as “measurable covalent modification”.
Consider `C=C[C@@H]1C[C@]1(NC(=O)[C@@H]1C[C@@H]2CN1C(=O)[C@H](CCC(=O)C=C(C)C)NC(=O)OCCC/C=C/c1ccc3ccnc(c3c1)O2)C(=O)NS(=O)(=O)C1CC1` [Compound 6], for which the EC90 in test [3] was under 10 nM.
`C=CC(=O)N[C@H](C)C(=O)N1C[C@H](Oc2cc(-c3ccccc3)nc3cc(OC)ccc23)C[C@H]1C(=O)N[C@]1(C(=O)NS(=O)(=O)C2CC2)C[C@H]1C=C` [Compound 7]: the “inhibition of NS3 self-cleavage after compound removal” value in test [1] (up to 24 hours after compound removal (FIG. 5)) is reported as “virtually complete inhibition”. Also, the IC50 in test [4] was 100 to 1000 nM. The “duration of inhibition of mutant protease activity after compound removal” value in test [5] is given as “at least 24 hours”.
